The text below walks through data of ChEMBL document CHEMBL5604063, “ASAP - DENV-2 NS2B-NS3 protease fluorescence dose response” (2024).

This experiment has as its target Genome polyprotein (dengue virus type 2, UniProt P29990). In kind it is functional, Thailand/16681/1984.

Where “and” joins values, the source holds several entries; their conditions need not be identical. Equal entries are not always repeated.

Chain of Genome polyprotein (P29990 1346-1475 limits assumed): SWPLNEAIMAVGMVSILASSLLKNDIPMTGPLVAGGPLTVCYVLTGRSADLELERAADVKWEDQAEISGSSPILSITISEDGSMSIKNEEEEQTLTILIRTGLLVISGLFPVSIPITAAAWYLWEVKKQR
Chain of Genome polyprotein (P29990 1476-2093 limits assumed): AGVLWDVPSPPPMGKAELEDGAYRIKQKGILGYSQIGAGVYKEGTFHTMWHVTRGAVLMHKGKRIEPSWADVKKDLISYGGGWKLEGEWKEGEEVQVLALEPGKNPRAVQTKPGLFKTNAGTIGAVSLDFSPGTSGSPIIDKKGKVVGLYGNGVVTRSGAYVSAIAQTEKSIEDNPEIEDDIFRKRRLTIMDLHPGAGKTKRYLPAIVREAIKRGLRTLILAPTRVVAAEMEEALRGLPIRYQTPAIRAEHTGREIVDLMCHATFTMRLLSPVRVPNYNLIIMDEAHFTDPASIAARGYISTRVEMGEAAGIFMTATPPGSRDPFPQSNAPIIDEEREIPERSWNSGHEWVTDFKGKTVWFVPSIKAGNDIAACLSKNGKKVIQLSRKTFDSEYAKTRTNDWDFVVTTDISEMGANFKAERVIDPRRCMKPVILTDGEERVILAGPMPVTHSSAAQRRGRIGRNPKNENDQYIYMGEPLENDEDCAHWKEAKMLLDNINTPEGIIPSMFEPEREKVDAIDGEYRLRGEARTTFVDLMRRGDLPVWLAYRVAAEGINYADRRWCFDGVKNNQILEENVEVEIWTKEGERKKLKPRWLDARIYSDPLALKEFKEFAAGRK

With `c1ccc2c(CN3CCCc4cnccc4C3)n[nH]c2c1`, the 50% inhibitory concentration (IC50) was > 99.5 µM. With `NCc1cccc(NC(=O)[C@H](NS(=O)(=O)c2cccc(Cl)c2)c2ccc(OCc3ccccc3)cc2)c1` the figure was > 99.5 µM.

In the case of `NCc1nccc(NC(=O)c2cc(Cl)cc(NC(=O)OCc3ccccc3)c2)n1`, the IC50 is > 99.5 µM. The same measure for `CCn1cc(C(=O)Nc2ccccc2)nc(N2CC[C@@H](CO)C2)c1=O`: > 99.5 µM; for `O=C(Nc1cc(Cl)cc(C(=O)Nc2cccc(C3CCNCC3)c2)c1)OCc1ccccc1`: 20.5 µM and 20.3 µM; for `NCc1cccc(NC(=O)[C@@H]2C[C@@H]3CC[C@H]2N3C(=O)OCc2ccccc2)c1`: > 99.5 µM. Regarding `CCCNC(=O)Cn1ccnc(N2CC[C@H](CO)C2)c1=O`, the IC50 was > 99.5 µM.

With `COc1cc(C(=O)O)c(S(=O)(=O)Nc2ccc(Oc3ccccc3Cl)cc2)cc1F`, 30.3 µM corresponded to half-maximal inhibition (IC50). On to `NCc1ccc(CNC(=O)c2cc(Cl)cc(NC(=O)OCc3ccccc3)c2)cc1`, for which the IC50 was > 99.5 µM. For `COc1ccc(C)cc1S(=O)(=O)N[C@@H](C(=O)Nc1cccc(CN)c1)c1ccc(OCc2ccccc2)cc1`, the midpoint of inhibition, the IC50, lay at 96 µM. For the compound `CN(C)Cc1cccc(-c2ccc(S(=O)(=O)Nc3ccc(Cl)cc3C(=O)O)cc2)c1`, the IC50 was > 99.5 µM.

The compound `NCc1cccc(NC(=O)[C@@H](NS(=O)(=O)CCc2ccccc2)c2ccc(OCc3ccccc3)cc2)c1` returned a half-maximal inhibitory concentration (IC50) of 72.8 µM.

Turning to `NC1(c2cccc(NC(=O)c3cc(Cl)cc(NC(=O)OCc4ccccc4)c3)c2)CCC1`, the IC50 was > 99.5 µM. As for `NCc1cccc(NC(=O)[C@@]23C[C@@H](NC(=O)OCc4ccccc4)C[C@@H]2C3)c1`, the IC50 is > 99.5 µM. The same measure for `Cn1ccc(-c2n[nH]cc2CN2CCC(c3nc4ccccc4s3)CC2)n1`: > 99.5 µM; for `NCc1cccc(NC(=O)C[C@@H](NC(=O)OCc2ccccc2)c2ccc3c(c2)OCO3)c1`: > 99.5 µM.

`O=C(O)c1cc(Cl)cc(Cl)c1S(=O)(=O)Nc1ccc(Oc2ccccc2Cl)cc1`: the IC50 is > 99.5 µM. Take `O=C(O)c1cc(Cl)ccc1S(=O)(=O)N[C@H]1CCn2c(nnc2C(F)(F)F)C1`: the IC50 was > 99.5 µM.

With `CCNC(=O)c1cn(CC)c(=O)c(N2CC[C@@H](CO)C2)n1`, the IC50 was > 99.5 µM. With `C[C@H]1CN(C(=O)c2cccc3c(CN)cccc23)CCC12CCNCC2` the figure was > 99.5 µM; with `CCn1nccc1S(=O)(=O)N[C@@H](C(=O)Nc1cccc(CN)c1)c1ccc(OCc2ccccc2)cc1`, > 99.5 µM. The same measure for `CCn1ccnc(N2CCC[C@H]2C(=O)O)c1=O`: > 99.5 µM; for `O=C(O)c1cc(Cl)ccc1S(=O)(=O)N[C@H]1CC[C@@H](Oc2cnccn2)CC1`: > 99.5 µM; for `NCC1CCN(C(=O)c2cc(Cl)cc(NC(=O)OCc3ccccc3)c2)CC1`: > 99.5 µM. Consider `O=C(O)c1cc(Cl)ccc1S(=O)(=O)NC1CCN(c2ncnc3c2CCC3)CC1`, for which the IC50 is > 99.5 µM. Take `Cn1ccc(CS(=O)(=O)N[C@@H](C(=O)Nc2cccc(CN)c2)c2ccc(OCc3ccccc3)cc2)n1`: the 50% inhibitory concentration (IC50) is > 99.5 µM. With `O=C(O)c1cc(Cl)ccc1S(=O)(=O)NC1CCN(S(=O)(=O)Cc2ccccc2)CC1` the figure was > 99.5 µM; with `O=C(O)c1cc(Cl)ccc1S(=O)(=O)Nc1ccc(C(=O)N2CCCCC2)cc1`, > 99.5 µM; with `O=C(O)c1cc(Cl)ccc1NS(=O)(=O)c1ccc(-c2ccncc2)cc1`, > 99.5 µM. With `CN(C)[C@@H]1C[C@H](C(=O)Nc2cccc(CN)c2)CN(C(=O)OCc2ccccc2)C1`, the half-maximal inhibitory concentration (IC50) is > 99.5 µM. With `c1cncc(CC2CN(Cc3n[nH]c4ccccc34)C2)c1` the figure was > 99.5 µM; with `O=C(O)c1cc(Cl)ccc1NS(=O)(=O)c1ccc(-c2cncs2)cc1`, 75.3 µM; with `O=C(Nc1cc(Cl)cc(C(=O)Nc2cccc(CC3CCNCC3)c2)c1)OCc1ccccc1`, > 99.5 µM. Take `NCc1cccc(NC(=O)C[C@@H](NC(=O)OCc2ccccc2)C2CCCCC2)c1`: the IC50 is 45.2 µM and 44.4 µM. As for `NCc1cccc(NC(=O)C[C@@H]2[C@H]3CC[C@H](C3)N2C(=O)OCc2ccccc2)c1`, the IC50 is > 99.5 µM.

`NCc1cccc(NC(=O)[C@H](NC(=O)COc2ccccc2)c2ccc(OCc3ccccc3)cc2)c1` yielded an IC50 of 55.2 µM.

Compound `NCCc1ccc(NC(=O)c2cc(Cl)cc(NC(=O)OCc3ccccc3)c2)cc1` gave an IC50 of 30.9 µM. With `Cn1cc(CCOc2ccc([C@@H](NC(=O)OCc3ccccc3)C(=O)Nc3cccc(CN)c3)cc2)nn1` the figure was > 99.5 µM; with `Cc1cc(NS(=O)(=O)c2ccc(Cl)cc2C(=O)O)nn1Cc1ccccc1`, > 99.5 µM; with `NCCc1cccc(NC(=O)c2cc(Cl)cc(NC(=O)OCc3ccccc3)c2)c1`, 49.7 µM and 44 µM.

On to `Fc1cccc(F)c1-c1n[nH]cc1CN1CCC(c2nc3ccccc3s2)CC1`, for which the IC50 is > 99.5 µM. On to `COC(=O)Cc1ccccc1-c1ccc(S(=O)(=O)Nc2ccc(Cl)cc2C(=O)O)cc1`, for which the IC50 worked out at 35.5 µM. The same measure for `N#Cc1ccc(S(=O)(=O)Nc2ccc(Oc3ccccc3Cl)cc2)c(C(=O)O)c1`: 55.7 µM; for `O=C(O)c1cc(Cl)ccc1S(=O)(=O)Nc1ccc(-c2n[nH]c3c2CCCC3)cc1`: 73.2 µM; for `Cc1cc(C)cc(C(=O)N2CCC(NS(=O)(=O)c3ccc(Cl)cc3C(=O)O)CC2)c1`: > 99.5 µM. The same measure for `O=C(O)c1cc(Cl)ccc1S(=O)(=O)Nc1ccc(S(=O)(=O)N2CCCCC2)cc1`: > 99.5 µM; for `COc1ccc([C@@H](CC(=O)Nc2cccc(CN)c2)NC(=O)OCc2ccccc2)cc1Br`: 50.1 µM. Consider `COC(=O)c1n[nH]cc1CN1CCC(c2nc3ccccc3s2)CC1`, for which the IC50 was > 99.5 µM. The same measure for `CCC1([C@H](NC(=O)OCc2ccccc2)C(=O)Nc2cccc(CN)c2)CCCCC1`: > 99.5 µM; for `CCOC1CC(S(=O)(=O)N[C@H](C(=O)Nc2cccc(CN)c2)c2ccc(OCc3ccccc3)cc2)C1` (some centres not stated): > 99.5 µM; for `NCc1cccc(NC(=O)[C@H]2[C@@H]3CC[C@@H](C3)[C@H]2NC(=O)OCc2ccccc2)c1`: > 99.5 µM. `O=C(O)c1cc(Cl)ccc1S(=O)(=O)Nc1ccc(CN2CCCCC2)cc1`: the concentration for half-maximal inhibition (IC50) is > 99.5 µM.

For `COc1ncc(C(=O)Nc2cccc(CN)c2)cc1NC(=O)OCc1ccccc1`, the IC50 is > 99.5 µM. Take `NCc1cccc(NC(=O)[C@@H](NS(=O)(=O)c2ccccn2)c2ccc(OCc3ccccc3)cc2)c1`: the IC50 was > 99.5 µM. In the case of `C[C@@H]1C[C@H](NS(=O)(=O)c2ccc(Cl)cc2C(=O)O)C[C@H](C)N1Cc1ccccc1`, the 50% inhibitory concentration (IC50) is > 99.5 µM. The compound `CSc1ccc([C@H](CC(=O)Nc2cccc(CN)c2)NC(=O)OCc2ccccc2)cc1` showed an IC50 of 44.2 µM. With `O=C(O)c1cc(Cl)ccc1S(=O)(=O)NC1CCN(S(=O)(=O)c2cccs2)CC1` the figure was > 99.5 µM. With `NCCNC(=O)c1cc(Cl)cc(NC(=O)OCc2ccccc2)c1` the figure was > 99.5 µM. With `NC1CCN(C(=O)c2cc(Cl)cc(NC(=O)OCc3ccccc3)c2)CC1`, the half-inhibitory concentration (IC50) was > 99.5 µM.

Turning to `c1ccc(-c2ncc(CN3CCC(c4nc5ccccc5s4)CC3)[nH]2)cc1`, the IC50 was > 99.5 µM. The same measure for `Cc1cccc(N2CCC(NS(=O)(=O)c3ccc(Cl)cc3C(=O)O)CC2)n1`: > 99.5 µM. The same measure for `c1ccc2sc(C3CCN([C@H]4Cc5[nH]c6ccccc6c5C4)CC3)nc2c1`: > 99.5 µM; for `CCn1cc(C(=O)NCc2ccccc2)nc(N2CC[C@@H](CO)C2)c1=O`: > 99.5 µM; for `C[C@@H](N)c1ccc(NC(=O)c2cc(Cl)cc(NC(=O)OCc3ccccc3)c2)cc1`: 48.2 µM. With `CCn1cc(C(=O)N2CCN(C)CC2)nc(N2CC[C@@H](CO)C2)c1=O` the figure was > 99.5 µM; with `O=C(O)c1cc(Cl)ccc1S(=O)(=O)Nc1ccc(S(=O)(=O)Nc2ccccc2)cc1`, > 99.5 µM.

`NCc1cccc(NC(=O)[C@@H](NS(=O)(=O)C[C@H]2CCCCO2)c2ccc(OCc3ccccc3)cc2)c1`: the IC50 was > 99.5 µM. The same measure for `CCc1ncc(CN2CCC(c3nc4ccccc4s3)CC2)[nH]1`: > 99.5 µM; for `c1ccc2sc(C3CCN(Cc4n[nH]c5c4CCCC5)CC3)nc2c1`: > 99.5 µM. Compound `COc1ccc(-c2cc(NS(=O)(=O)c3ccc(Cl)cc3C(=O)O)ccc2OC)cc1` returned an IC50 of 48.8 µM. The same measure for `COc1n[nH]cc1CN1CCC(c2nc3ccccc3s2)CC1`: > 99.5 µM. For the compound `O=C(O)c1cc(Cl)ccc1NS(=O)(=O)c1ccc(-c2ccc(F)cc2)cc1`, the IC50 stood at 12.5 µM. On to `CC1(N2CCC(NS(=O)(=O)c3ccc(Cl)cc3C(=O)O)CC2)CCCCC1`, for which the IC50 was > 99.5 µM. As for `CCCOc1ccc([C@@H](CC(=O)Nc2cccc(CN)c2)NC(=O)OCc2ccccc2)cc1`, the IC50 is 24.7 µM and 59.4 µM. The same measure for `CN(C)c1cc(-c2ccc(S(=O)(=O)Nc3ccc(Cl)cc3C(=O)O)cc2)ccn1`: 87.6 µM; for `NCc1cccc(NC(=O)[C@@H](NS(=O)(=O)c2ccccc2F)c2ccc(OCc3ccccc3)cc2)c1`: > 99.5 µM; for `c1ccc2c(CN[C@H]3CCc4c([nH]c5ccccc45)C3)n[nH]c2c1`: > 99.5 µM. The same measure for `CN1CC=C(c2ccc(S(=O)(=O)Nc3ccc(Cl)cc3C(=O)O)cc2)CC1`: > 99.5 µM; for `CN(C(=O)c1cc(Cl)cc(NC(=O)OCc2ccccc2)c1)c1ccc(CN)cc1`: > 99.5 µM. The same measure for `CC(=O)N1CCC[C@H]1C(=O)N[C@@H](C(=O)Nc1cccc(CN)c1)c1ccc(OCc2ccccc2)cc1`: > 99.5 µM; for `c1cncc(C2CC(NCc3n[nH]c4ccccc34)C2)c1` (configuration not stated): > 99.5 µM.

With `COc1ccc(NS(=O)(=O)c2ccc(Cl)cc2C(=O)O)cc1S(=O)(=O)N1CCCC1`, the half-inhibitory concentration (IC50) is > 99.5 µM. The same measure for `N#Cc1ccccc1O[C@H]1CC[C@H](NS(=O)(=O)c2ccc(Cl)cc2C(=O)O)CC1`: > 99.5 µM; for `O=C(O)c1cc(Cl)ccc1S(=O)(=O)Nc1ccc(F)c(NC(=O)C2CC2)c1`: > 99.5 µM; for `O=C(O)c1cc(Cl)ccc1S(=O)(=O)NC1CCN(c2nc(C3CC3)cc(C(F)(F)F)n2)CC1`: 15.5 µM.

In the case of `CCc1ccc(S(=O)(=O)N[C@@H](C(=O)Nc2cccc(CN)c2)c2ccc(OCc3ccccc3)cc2)cc1`, the 50% inhibitory concentration (IC50) came out at 92 µM. With `CCn1cc(S(=O)(=O)N[C@@H](C(=O)Nc2cccc(CN)c2)c2ccc(OCc3ccccc3)cc2)cn1` the figure was > 99.5 µM.
